Data from patent US10807932B2, “Benzosuberene analogues and related compounds with activity as anticancer agents” (Baylor University, priority 2018, dated 2020).
Several values for one entry are separate records, joined by “and”; a condition that tells them apart may be missing. Identical values can stand only once. Entries after “also recorded” stand apart in the source; their conditions may differ.

Experiments:
[1] = tested on: PC3-DAB2IP-luc human prostate tumor xenograft; experiment: In vivo vascular disruption by dynamic bioluminescence imaging (BLI); parameters: species or system Male Copenhagen rats; conditions: for vascular response by BLI light emission (in words): phosphate
From the text: In Vivo Vascular Disruption.
The human prostate cancer cell line (PC3) was modified by knock down of a tumor suppressor protein PC3-DAB2IP and further modified by transfection with a firefly luciferase reporter, as described in detail previously. Male Copenhagen rats (originally from Charles River and bred at UT Southwestern) were inoculated subcutaneously with 5×10^5 PC3-DAB2IP-luc cells mixed with 30% Matrigel® in the right thigh. These rats were approximately 6 weeks old and weighed between 100-120 g on date of implantation. Tumors were allowed to grow to a diameter of at least 1 cm before treatment commenced. Three rats were treated with VDA prodrug 89 (25 mg/mL in saline) administered IP. Rat 1 received 10 mg/kg followed by 40 mg/kg 24 h later and CA4P (30 mg/kg at 20 mg/mL in saline) was administered IP as a control 4 days later. Rat 2 received a single dose of 40 mg/kg of VDA prodrug 89, and rat 3 received 80 mg/kg of 89. Bioluminescence imaging (BLI) was performed before treatment (baseline), and at 4 and 24 h after treatment using an IVIS Spectrum® (Perkin-Elmer). Briefly, anesthetized rats (breathing oxygen with 3% isoflurane, Henry Schein Inc.) were injected subcutaneously in the foreback neck region with 120 mg/kg D-luciferin sodium salt (Gold Biotechnology, St. Louis, Mo.) and imaged over a time course of about 30 min. Fresh luciferin was administered at each time point. The resulting light intensity time curves were analyzed using Living Image® Software and light emission measured for a region of interest encompassing the tumor. All animal procedures were carried out in accordance with the Guide for the Care and Use of Laboratory Animals as adopted and promulgated by the U.S. National Institutes of Health as well as the Institutional Animal Care and Use Committee approved protocols (APN 2017-102168) at the University of Texas Southwestern Medical Center.
Ultimately, VDAs will be used in vivo, and thus it is crucial to understand both efficacy of vascular disruption and potential off target toxicity in vivo. As a preliminary investigation, the extent of vascular damage was assessed in a human prostate tumor line in rats treated with the water-soluble prodrug salt 89 compared to CA4P as control. Many imaging methods have been developed to assess vascular disruption non-invasively in vivo. Dynamic bioluminescence imaging (BLI) was favored for initial validation of VDA activity since it provides a fast, non-invasive and easy method and allows comparison of repeat or sequential investigations. BLI does require the use of cells transfected to express luciferase (luc), but these are commonly available and we have used this approach extensively as have others. The human prostate cancer PC3 line was used, in which the tumor suppressor protein DAB2IP had been knocked down and luciferase introduced. BLI requires administration of luciferin substrate, which readily crosses membranes and is carried throughout the vasculature. The measurement of light emission dynamics is related to vascular delivery of the luciferin substrate, and thus it provides a measure of vascular patency. Disruption of tumor vasculature blocks delivery of the substrate and consequently results in a quantifiable decrease in bioluminescent signal.

[2] = biological target: T1, purified bovine brain tubulin (Bos taurus, UniProt P81947+Q6B856); experiment: Inhibition of tubulin polymerization (turbidimetric, cell-free); type: biochemical; conditions: for IC50: 10 μM tubulin, extent of polymerization after 20 min at 30° C., read-out: Inhibition of tubulin polymerization IC50 (μM) ± SD; for inhibition of tubulin polymerization (in words): cell-free assay
T1 construct: purified bovine brain tubulin; from tissue; host or cells: bovine brain
T1 sequence (Q6B856 whole entry): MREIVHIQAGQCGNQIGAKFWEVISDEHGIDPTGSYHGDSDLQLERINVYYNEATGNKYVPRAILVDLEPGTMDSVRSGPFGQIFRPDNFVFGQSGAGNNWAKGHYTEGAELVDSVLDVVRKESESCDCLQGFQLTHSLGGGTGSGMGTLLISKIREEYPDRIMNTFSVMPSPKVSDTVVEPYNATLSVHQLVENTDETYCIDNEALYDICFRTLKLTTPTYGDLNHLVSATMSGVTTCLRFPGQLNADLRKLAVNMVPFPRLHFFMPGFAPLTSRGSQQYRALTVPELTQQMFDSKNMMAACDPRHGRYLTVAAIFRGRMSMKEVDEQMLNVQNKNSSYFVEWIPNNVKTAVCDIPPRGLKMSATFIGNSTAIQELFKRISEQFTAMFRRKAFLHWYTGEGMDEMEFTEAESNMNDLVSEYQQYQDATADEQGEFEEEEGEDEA
T1 sequence (P81947 whole entry): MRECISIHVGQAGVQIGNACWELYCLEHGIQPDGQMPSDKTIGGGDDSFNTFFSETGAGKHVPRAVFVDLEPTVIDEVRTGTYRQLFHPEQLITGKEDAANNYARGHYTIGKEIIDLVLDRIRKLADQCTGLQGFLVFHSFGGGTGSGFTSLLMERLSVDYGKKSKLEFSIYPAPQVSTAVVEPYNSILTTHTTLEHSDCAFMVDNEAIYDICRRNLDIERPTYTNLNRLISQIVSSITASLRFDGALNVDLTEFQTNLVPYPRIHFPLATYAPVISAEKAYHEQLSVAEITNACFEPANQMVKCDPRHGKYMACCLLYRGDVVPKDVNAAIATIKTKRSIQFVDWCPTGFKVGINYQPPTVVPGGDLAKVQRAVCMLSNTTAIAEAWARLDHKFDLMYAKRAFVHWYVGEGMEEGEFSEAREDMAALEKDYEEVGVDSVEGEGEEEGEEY
Protocol: Inhibition of Tubulin Polymerization.
Tubulin polymerization was evaluated in 0.25 mL reaction mixtures (final volume) containing 1 mg/mL (10 μM) purified bovine brain tubulin, 0.8 M monosodium glutamate (pH 6.6), 4% (v/v) dimethyl sulfoxide, 0.4 mM GTP, and different compound concentrations. All components except GTP were preincubated for 15 min at 30° C. in 0.24 mL. The assay mixtures were cooled to 0° C., and 10 μL of 0.01 M GTP was added to each sample. Reaction mixtures were transferred to cuvettes held at 0° C. in Beckman DU-7400 and DU-7500 spectrophotometers equipped with electronic temperature controllers. The temperature was increased to 30° C., over about 30 s, and polymerization was followed turbidimetrically at 350 nm for 20 min.

[3] = tested on: NCI-H460 (lung) cancer cell line; experiment: Sulforhodamine B (SRB) growth inhibition assay, NCI-H460; type: cell-based, human; conditions: 48 h treatment
From the text: (§1) Cell Lines and Sulforhodamine B (SRB) Assay.
(§2) The sulforhodamine B (SRB) assay was used to assess growth inhibition of human cancer cells, as previously described. DU-145, SK-OV-3, and NCI-H460 cancer cell lines (obtained from ATCC) were maintained in T75 flasks (Corning) using high glucose DMEM supplemented with 10% fetal bovine serum (Gibco)/1% gentamicin sulfate for a maximum of 15 passages. For these experiments, cells were trypsinized, counted, and plated at 7000-8000 cells/well into 96-well plates (Corning) and incubated for 24 h at 37° C. in a humidified incubator in a 5% CO2 atmosphere. Compounds to be tested were dissolved in DMSO to generate a 10 mg/mL stock solution, and serial dilutions added in media to the plates. Doxorubicin (Sigma-Aldrich) and paclitaxel (Tokyo Chemical) were used as positive controls. After a 48 h treatment, the cells were fixed with trichloroacetic acid (10% final concentration), washed, dried, stained with SRB dye, washed to remove excess dye, and dried. SRB dye was solubilized, and absorbances were measured at wavelength 540 nm and normalized to values at wavelength 630 nm using an automated Biotek plate reader.

[4] = 30 mg/kg, rats, shown previously; cited from earlier work
[5] = tested on: SK-OV-3 (ovarian) cancer cell line; experiment: Sulforhodamine B (SRB) growth inhibition assay, SK-OV-3; type: cell-based, human; conditions: 48 h treatment
From the text: as §1, §2

[6] = tested on: DU-145 (prostate) cancer cell line; experiment: Sulforhodamine B (SRB) growth inhibition assay, DU-145; type: cell-based, human; conditions: 48 h treatment
From the text: as §1, §2

tubulin = experiment: Colchicine binding assay (inhibition of [3H]colchicine binding to tubulin); conditions: 1.0 μM tubulin, 5.0 μM [3H]colchicine
Protocol: Colchicine Binding Assay.
Inhibition of [^3H]colchicine binding to tubulin was measured in 0.1 mL reaction mixtures, each containing 1.0 μM tubulin, 5.0 μM [^3H]colchicine (Perkin-Elmer), 5% (v/v) dimethyl sulfoxide, […], and components that stabilize the colchicine binding activity of tubulin (1.0 M monosodium glutamate [adjusted to pH 6.6 with HCl in a 2.0 M stock solution], 0.5 mg/mL bovine serum albumin, 0.1 M glucose-1-phosphate, 1.0 mM MgCl2, and 1.0 mM GTP). […] Reactions were stopped with 2.0 mL of ice-cold water, with the reaction mixtures being placed on ice. Each diluted sample was poured onto a stack of two DEAE-cellulose filters (GE Biomedical), followed by 3 successive 2 mL aliquots of ice-cold water. A reduced vacuum was used to remove excess water from the filters, which were washed three times with 2 mL water and placed into vials containing 5 mL of Biosafe II scintillation cocktail. Samples were counted 18 h later in a Beckman scintillation counter. Samples with inhibitors were compared to samples with no inhibitor, and percent inhibition was determined, correcting all values for the amount of radiolabel bound to the filters in the absence of tubulin.

Row | Structure (SMILES) | vascular response by BLI (in words) ([1]; 30 mg/kg IP, given 4 days after 89 to the same rat) | IC50 [2] | GI50 [3] | vascular shutdown (in words) [4] | GI50 [5] | GI50 [6] | inhibition of tubulin polymerization (in words) [2] | % Inhibition of colchicine binding ± SD (tubulin; compound at 5 μM) | GI50 ([3]; Homo sapiens, NCI-H460) | GI50 ([5]; Homo sapiens, SK-OV-3) | GI50 ([6]; Homo sapiens, DU-145) | % Inhibition of colchicine binding ± SD (tubulin; compound at 0.5 μM) | vascular response by BLI light emission (in words) ([1]; 10 mg/kg IP, rat) | vascular response by BLI light emission (in words) ([1]; 40 mg/kg IP, 4 h, rat) | recovery of BLI signal (in words) ([1]; 40 mg/kg IP, 24 h, rat) | appearance of the rats ([1]; 40 mg/kg IP, at 48 h) | tolerability ([1]; 80 mg/kg IP, rat) | vascular disruption (in words) ([1]; 80 mg/kg IP, rat) | % Inhibition of colchicine binding ± SD (tubulin; compound at 1 μM)
1 | COc1ccc(/C=C\c2cc(OC)c(OC)c(OC)c2)cc1OP(=O)(O)O [CA4P, combretastatin A-4 phosphate, reference compound] | very similar effect | > 40 µM | 1.94 nM | extensive vascular shutdown | 1.19 nM | 3.23 nM |  |  |  |  |  |  |  |  |  |  |  |  | 
2 | COc1cc(C2CCc3c(ccc(OC)c3OC)C(=O)C2)cc(OC)c1OC (centres unmarked) [Compound 77, 1,2-Dimethoxy-7-(3,4,5-trimethoxyphenyl)-6,7,8,9-tetrahydro-5H-benzo[7]annulen-5-one] |  | > 20 µM |  |  |  |  | lack of activity | 0 (5 μM) % | 2000 nM | 5770 nM | 4450 nM |  |  |  |  |  |  |  | 
3 | COc1ccc2c(c1O)CC=CC=C2c1cc(OC)c(OC)c(OC)c1 [Compound 88, 3-Methoxy-9-(3,4,5-trimethoxyphenyl)-5H-benzo[7]annulen-4-ol] |  | 0.48 ± 0.08 µM |  |  |  |  |  | 95 ± 0.8% | 58.1 nM | 6.9 nM | 97.6 nM | 68 ± 1% |  |  |  |  |  |  | 
4 | COc1cc(C2=CC=CCc3c2ccc(OC)c3OP(=O)([O-])[O-])cc(OC)c1OC.[Na+].[Na+] [Compound 89, Sodium 3-methoxy-9-(3,4,5-trimethoxyphenyl)-5H-benzo[7]annulen-4-yl phosphate] |  | 16 ± 0.7 µM |  |  |  |  | inactive | 45 ± 2 (5 μM) % | 29.1 nM | 15.3 nM | 23.9 nM |  | no vascular perturbation; also recorded: minimal change in light emission | substantial vascular shutdown; also recorded: substantially diminished light emission; also recorded: revealed vascular disruption | substantial recovery by 24 h | appeared healthy | well tolerated | did not show additional vascular disruption | 
5 | COc1ccc2c(c1O)CCCC1=C2c2cc(OC)c(OC)c(OC)c2C1=O [Compound 91, 4-Hydroxy-3,9,10,11-tetramethoxy-6,7-dihydrodibenzo[a,h]azulen-8(5H)-one] |  | 4.2 ± 0.2 µM |  |  |  |  |  | 45 ± 4 (5 μM) % | 105 nM | 39.9 nM | 32.1 nM |  |  |  |  |  |  |  | 
6 | COc1ccc2c(c1O)CCCC=C2c1cc(OC)c(OC)c(OC)c1 [KGP18, 3-Methoxy-9-(3,4,5-trimethoxyphenyl)-6,7-dihydro-5H-benzo[7]annulen-4-ol, reference compound] |  | ~0.85 µM and 0.85 µM |  |  |  |  |  | 95 ± 0.5% | 0.0418 nM | 0.0543 nM | 0.0249 nM |  |  |  |  |  |  |  | 73 ± 5%
